Measurements taken from US20060051868A1, “Methods for increasing conifer somatic embryo initiation, capture, and multiplication” (priority 2001, published 2006).

Tests used:
Type in all cases: cell-based
[1] = test system: Douglas-fir zygotic embryos; experiment: Initiation frequency of embryogenic cultures from Douglas-fir zygotic embryos; conditions: 1.0 ppm in media #121 (Media 1323); 8-9 weeks, dark; control 16.4
Method: Four Douglas-fir cone collections with zygotic embryos at stages 2-4 were chosen. Cones were supplied by The Timber Co. from Cottage Grove, Oregon. Seeds were removed from their cones, soaked in running water for 10 min., and agitated in 10% liquinox containing 1.1 ml/l Tween 20 for an additional 10 min. The seeds were then rinsed with running tap water for 30 min. Seeds were transferred into a laminar flow hood where they were sterilized by agitating in 20% H2O2 for 10 min. Seeds were rinsed in sterilized water for 5 cycles of 5 to 10 min. each. The sterile seeds were placed into a sterile petri dish and dissected. The dissection was performed by splitting the ovule, gently removing the dominant embryo while leaving the suspensor intact, and placing both the embryo and the connected female gametophyte on the test medium. Test medium #1323 is the same as control media #121 but contains 1.0 ppm paclobutrazol. 2 ml of the appropriate medium was poured into multi-well plates sufficient for 10 replications per cone collection. The plates were incubated in the dark for 8-9 weeks at 24-26° C. […] Four Douglas-fir cone collections with zygotic embryos at stages 2-4 were chosen. […] The initiation frequency for the four cone collections with the addition of salts, paclobutrazol, and brassinolide enclosed in a nylon bag was determined to be 38.6%. […]

[2] = test system: slash pine megagametophyte; experiment: Initiation frequency of embryogenic cultures from slash pine megagametophytes; conditions: 1.0 ppm paclobutrazol in media #1369B (Media 1374); 8 weeks, dark; control 19.3
Method: A further representative example in conifer to show the effects of gibberellin inhibitors in a buffered media is slash pine. Three cone collections with embryos at stages 2-4 were chosen. Removed seeds were soaked in running water for […]. and then agitated in 10% liquinox containing 1.1 ml/l Tween 20 for an additional 10 min. Seeds were sterilized in a laminar flood by agitating in 20% H2O2 for 10 min. Seeds were rinsed in sterilized water for 5 cycles of 5 to 10 min. each. The sterile seeds were placed into a sterile petri dish and dissected. The dissection was performed by splitting the seed coat, removing the integuments and nucellus, and placing the megagametophyte on the test medium. Test media #1374 contains the components of media #1369B and 1.0 ppm paclobutrazol. 2 ml of the appropriate media was poured into multi-well plates sufficient for 10 replications for each genotype. The plates were then incubated in the dark for 8 weeks at 24-26° C.

[3] = test system: Norway Spruce embryo and female gametophyte; experiment: Initiation frequency of embryogenic cultures from Norway Spruce seed embryos; conditions: base media #56; MES 0.25 gm/l (Media 1362); vitamins 0.05 ppm biotin + 0.5 ppm folic acid (Media 1363); nine weeks, light; control 38.5
Method: Mature Norway Spruce seeds were soaked in running water for 1 hour at room temperature and then stored in water for 24 hours in a refrigerator at 4° C. The seeds were sterilized by agitation in 10% liquinox containing 1.1 ml/l Tween 20 for 10 minutes followed by a 30 minute rinse with running tap water. In a sterile laminar flow hood, the rinsed seeds were agitated in 20% H2O2 for 10 min., then again rinsed with sterile deionized water for 5 cycles of 5 to 10 min. each. The sterile Norway Spruce seeds were placed into petri dishes onto sterile moistened filter paper for dissection. Seeds were opened and the female gametophyte removed. The female gametophyte was placed on its side and further opened. The embryo was removed from the gametophyte and placed onto a test medium next to the female gametophyte. Petri dishes containing the embryo and gametophyte were covered and wrapped with Parafilm® and incubated in light at 23-24° C. for nine weeks. The control-medium used for Norway Spruce was media #56. Refer to Table 21 for a detailed listing of media components. The three test media contained combinations of buffering reagent MES and/or vitamins. […] Initiation frequency was determined to be 38.5% for the control media, while the frequency on the control medium with the addition of 0.33 ppm paclobutrazol averaged roughly 48.5%. […]

SMILES | Initiation Frequency (%) [1] [%] | Initiation Frequency (%) [2] [%] | Initiation Frequency (%) [3] [%]
CC(C)(C)[C@@H](O)[C@@H](Cc1ccc(Cl)cc1)n1cncn1 (racemic) [paclobutrazol] | 24.4 | 28.5 | 
O=S(=O)(O)CCN1CCOCC1 [MES, 2-(N-morpholino)-ethanesulfonic acid] |  |  | 40.2
